# Source: BindingDB's records for doi:10.1021/jm020572p (University of North Carolina at Chapel Hill, 2003)
# pKi: −log10 of the molar value.
# Key:
# [1] = biological target: T1, Muscarinic acetylcholine receptor M2 (Homo sapiens, UniProt P08172); assay: Binding affinity of compound was determined towards human Muscarinic acetylcholine receptor M2 using [3H]QNB radioligand
# T1 sequence (P08172 whole entry): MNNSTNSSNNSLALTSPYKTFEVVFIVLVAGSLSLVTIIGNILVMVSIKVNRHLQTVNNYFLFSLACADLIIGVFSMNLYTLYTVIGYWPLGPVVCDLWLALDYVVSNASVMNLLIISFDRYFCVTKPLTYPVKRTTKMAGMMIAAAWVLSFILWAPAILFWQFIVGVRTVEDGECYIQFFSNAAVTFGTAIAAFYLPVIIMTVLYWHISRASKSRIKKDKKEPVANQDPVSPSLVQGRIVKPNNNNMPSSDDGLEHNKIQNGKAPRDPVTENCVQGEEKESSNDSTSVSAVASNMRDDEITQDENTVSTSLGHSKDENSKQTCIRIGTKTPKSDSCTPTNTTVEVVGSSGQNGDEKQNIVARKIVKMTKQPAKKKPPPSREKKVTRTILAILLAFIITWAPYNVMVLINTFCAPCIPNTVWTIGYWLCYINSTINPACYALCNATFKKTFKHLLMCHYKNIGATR
# [2] = biological target: T2, Muscarinic acetylcholine receptor M5 (Homo sapiens, UniProt P08912); assay: Binding affinity of compound was determined towards human Muscarinic acetylcholine receptor M5 using [3H]QNB radioligand
# T2 sequence (P08912 whole entry): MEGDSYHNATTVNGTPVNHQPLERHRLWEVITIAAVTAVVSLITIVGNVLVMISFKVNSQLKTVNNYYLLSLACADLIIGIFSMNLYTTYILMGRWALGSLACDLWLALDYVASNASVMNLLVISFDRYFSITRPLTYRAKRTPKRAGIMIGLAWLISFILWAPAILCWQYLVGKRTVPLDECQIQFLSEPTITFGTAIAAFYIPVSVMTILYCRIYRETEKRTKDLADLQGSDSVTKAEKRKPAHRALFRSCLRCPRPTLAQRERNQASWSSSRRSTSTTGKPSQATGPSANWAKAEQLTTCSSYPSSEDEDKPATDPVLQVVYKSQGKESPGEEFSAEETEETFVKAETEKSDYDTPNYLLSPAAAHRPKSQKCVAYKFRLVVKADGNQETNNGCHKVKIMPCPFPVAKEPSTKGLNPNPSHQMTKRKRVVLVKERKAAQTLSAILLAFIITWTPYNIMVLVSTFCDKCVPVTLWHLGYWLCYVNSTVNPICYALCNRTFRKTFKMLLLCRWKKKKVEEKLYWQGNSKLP
smiles,measurement,setting,value
CCOC(=O)C1CN2CC(CCC2COCc2ccccc2)C1=O (stereo not drawn) [exo-8-Benzyloxymethyl-4-hydroxy-1-aza-bicyclo[3.3.1]non-3-ene-3-carboxylic acid ethyl ester],pKi,[1],7.10
same,pKi,[2],6.25
